ChEMBL document CHEMBL2380269, “Conformationally restricted homotryptamines. Part 6: indole-5-cycloalkyl methylamines as selective serotonin reuptake inhibitors” (Bioorg Med Chem Lett, 2013)

Experiments:
HEK293 [1] = test: Ratio of IC50 for human NET expressed in HEK293 cell membranes to IC50 for human SERT expressed in HEK293 cell membranes; type: cell-based
HEK293 [2] = test: Ratio of IC50 for human DAT expressed in HEK293 cell membranes to IC50 for human SERT expressed in HEK293 cell membranes; type: cell-based
[3] = target: T1, Sodium-dependent dopamine transporter (Homo sapiens, UniProt Q01959); test: Displacement of [3H]WIN-35428 form human DAT expressed in HEK293 cell membranes at 1 uM
[4] = target: T2, Sodium-dependent noradrenaline transporter (Homo sapiens, UniProt P23975); test: Displacement of [3H]nisoxetine from human NET expressed in HEK293 cell membranes
[5] = target: T2, Sodium-dependent noradrenaline transporter; test: Displacement of [3H]nisoxetine from human NET expressed in HEK293 cell membranes at 1 uM
[6] = target: Sodium-dependent serotonin transporter (Homo sapiens, UniProt P31645); test: Displacement of [3H]citalopram from human SERT expressed in HEK293 cell membranes
[7] = target: T1, Sodium-dependent dopamine transporter; test: Displacement of [3H]WIN-35428 form human DAT expressed in HEK293 cell membranes

T1 sequence (Q01959 whole entry): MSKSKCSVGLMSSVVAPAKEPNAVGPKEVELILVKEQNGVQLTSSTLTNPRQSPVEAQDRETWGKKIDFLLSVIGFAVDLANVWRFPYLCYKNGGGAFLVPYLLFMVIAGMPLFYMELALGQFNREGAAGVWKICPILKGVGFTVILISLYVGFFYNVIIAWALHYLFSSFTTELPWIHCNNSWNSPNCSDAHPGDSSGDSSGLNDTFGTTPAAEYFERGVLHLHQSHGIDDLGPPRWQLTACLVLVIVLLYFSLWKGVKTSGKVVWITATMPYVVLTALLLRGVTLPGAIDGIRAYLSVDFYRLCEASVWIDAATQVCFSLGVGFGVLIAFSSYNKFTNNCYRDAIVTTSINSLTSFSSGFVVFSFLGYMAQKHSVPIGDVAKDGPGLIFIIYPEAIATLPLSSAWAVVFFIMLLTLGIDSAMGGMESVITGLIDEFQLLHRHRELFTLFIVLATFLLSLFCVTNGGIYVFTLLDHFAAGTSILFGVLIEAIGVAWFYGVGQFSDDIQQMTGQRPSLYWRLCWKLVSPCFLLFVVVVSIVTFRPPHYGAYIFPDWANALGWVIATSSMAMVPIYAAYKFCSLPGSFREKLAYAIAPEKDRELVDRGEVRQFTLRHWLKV
T2 sequence (P23975 whole entry): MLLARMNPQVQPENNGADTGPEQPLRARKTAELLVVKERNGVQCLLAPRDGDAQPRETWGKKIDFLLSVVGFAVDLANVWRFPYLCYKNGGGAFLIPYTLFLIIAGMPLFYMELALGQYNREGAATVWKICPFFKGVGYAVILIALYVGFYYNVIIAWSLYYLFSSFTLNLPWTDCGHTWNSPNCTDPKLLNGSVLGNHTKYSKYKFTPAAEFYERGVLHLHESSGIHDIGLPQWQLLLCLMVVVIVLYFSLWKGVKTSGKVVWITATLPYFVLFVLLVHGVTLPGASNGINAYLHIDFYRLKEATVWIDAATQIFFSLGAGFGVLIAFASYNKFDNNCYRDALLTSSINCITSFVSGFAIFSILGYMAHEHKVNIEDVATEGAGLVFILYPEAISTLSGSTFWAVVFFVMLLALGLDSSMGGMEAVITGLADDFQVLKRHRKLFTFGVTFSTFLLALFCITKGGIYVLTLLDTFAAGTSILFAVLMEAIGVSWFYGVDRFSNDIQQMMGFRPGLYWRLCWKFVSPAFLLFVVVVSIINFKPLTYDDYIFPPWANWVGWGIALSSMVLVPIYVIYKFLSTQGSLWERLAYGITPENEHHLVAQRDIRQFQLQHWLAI
Sodium-dependent serotonin transporter, sequence (P31645 whole entry): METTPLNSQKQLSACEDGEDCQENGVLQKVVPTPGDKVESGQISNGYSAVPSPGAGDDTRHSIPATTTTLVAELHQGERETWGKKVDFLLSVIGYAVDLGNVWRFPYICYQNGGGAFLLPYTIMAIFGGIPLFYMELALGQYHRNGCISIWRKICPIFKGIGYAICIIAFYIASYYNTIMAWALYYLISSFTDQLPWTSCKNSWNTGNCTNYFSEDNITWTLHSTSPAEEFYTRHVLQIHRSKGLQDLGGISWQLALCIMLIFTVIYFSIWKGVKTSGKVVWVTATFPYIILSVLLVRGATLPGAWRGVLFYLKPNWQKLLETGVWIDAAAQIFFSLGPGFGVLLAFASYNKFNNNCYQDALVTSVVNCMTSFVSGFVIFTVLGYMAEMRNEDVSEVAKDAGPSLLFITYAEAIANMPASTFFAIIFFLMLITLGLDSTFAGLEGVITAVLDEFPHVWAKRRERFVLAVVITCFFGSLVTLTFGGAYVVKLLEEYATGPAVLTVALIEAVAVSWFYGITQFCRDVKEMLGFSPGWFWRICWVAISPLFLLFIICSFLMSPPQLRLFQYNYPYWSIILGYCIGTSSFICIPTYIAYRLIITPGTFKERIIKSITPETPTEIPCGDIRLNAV

| inhibition [3] [%] | IC50 [4] [µM] | inhibition [5] [%] | IC50 [6] [µM] | IC50 [7] [µM] | Compound | Ratio IC50 (HEK293 [1]) | Ratio IC50 (HEK293 [2]) |
| --- | --- | --- | --- | --- | --- | --- | --- |
| 50 | 8.2 | -1.7 | 0.0038 | – | CN(C)C[C@@H]1CCC[C@H]1c1ccc2[nH]cc(C#N)c2c1 (racemic) | > 100 | > 100 |
| 17 | – | 25 | 0.097 | – | CN(C)C[C@H]1C[C@@H]1Cc1ccc2[nH]cc(C#N)c2c1 (racemic) | > 100 | > 100 |
| – | – | – | 0.71 | – | CCN(CC)C[C@@H]1CCC[C@H]1c1ccc2[nH]cc(C#N)c2c1 (racemic) | – | – |
| 39 | – | 55 | 0.006 | – | CN(C)C[C@@H]1C[C@H]1c1ccc2[nH]cc(C#N)c2c1 (racemic) | > 100 | > 100 |
| – | – | – | 0.2 | – | CCN(C)C[C@@H]1CCC[C@H]1c1ccc2[nH]cc(C#N)c2c1 (racemic) | – | – |
| 53 | 0.51 | 78 | 0.064 | 0.66 | CNC[C@H]1CCC[C@H]1c1ccc2[nH]cc(C#N)c2c1 (racemic) | 10 | 10 |
| – | – | – | 0.57 | – | CN(C)C[C@@H]1CCC[C@H]1c1ccc2c(c1)c(C#N)cn2C (racemic) | – | – |
| 56 | – | 68 | 0.018 | – | CN(C)C[C@H]1CCC[C@H]1c1ccc2[nH]cc(C#N)c2c1 (racemic) | > 100 | > 100 |
| 49 | 3.7 | 16 | 0.0043 | 0.75 | CNC[C@@H]1CCC[C@H]1c1ccc2[nH]cc(C#N)c2c1 (racemic) | > 100 | > 100 |
| – | – | – | 0.26 | – | CCNC[C@@H]1CCC[C@H]1c1ccc2[nH]cc(C#N)c2c1 (racemic) | – | – |
| – | – | – | 0.3 | – | N#Cc1c[nH]c2ccc([C@@H]3CCC[C@H]3CN3CCCC3)cc12 (racemic) | – | – |
| – | – | – | 0.14 | – | CN(Cc1ccccc1)C[C@@H]1CCC[C@H]1c1ccc2[nH]cc(C#N)c2c1 (racemic) | – | – |

| Compound | inhibition [3] [%] | IC50 [4] [µM] | inhibition [5] [%] | IC50 [6] [µM] | IC50 [7] [µM] | Ratio IC50 (HEK293 [1]) | Ratio IC50 (HEK293 [2]) |
| --- | --- | --- | --- | --- | --- | --- | --- |
| CN(C)C[C@@H]1C[C@H]1c1ccc2[nH]ccc2c1 (racemic) | – | – | – | > 1 | – | – | – |
| CN(C)C[C@H]1C[C@@H]1c1c[nH]c2ccc(C#N)cc12 | – | – | – | 0.00056 | – | – | – |
| CN(C)C[C@H]1CCC[C@H]1c1c[nH]c2ccc(C#N)cc12 | – | – | – | 0.0011 | – | – | – |
